Data from patent publication US8598187B2, “Arylamide pyrimidone compounds” (Sanofi, priority 2007, dated 2013).

Target: GSK3β (Homo sapiens, UniProt P49841)
Assay: Inhibitory activity against GSK3β (33P-ATP phosphorylation of prephosphorylated GS1 peptide, two protocols)
Type: biochemical
Conditions: protocol 1 or 2 not specified
Protocol: Inhibitory Activity of the Medicament of the Present Invention Against GSK3β
Two different protocols can be used.
In a first protocol: 7.5 μM of prephosphorylated GS1 peptide and 10 μM ATP (containing 300,000 cpm of ^33P-ATP) were incubated in 25 mM Tris-HCl, pH 7.5, 0.6 mM DTT, 6 mM MgCl2, 0.6 mM EGTA, 0.05 mg/ml BSA buffer for 1 hour at room temperature in the presence of GSK3beta (total reaction volume: 100 microliters).
In a second protocol: 4.1 μM of prephosphorylated GS1 peptide and 42 μM ATP (containing 260,000 cpm ^33P-ATP) were incubated in 80 mM Mes-NaOH, pH 6.5, 1 mM Mg acetate, 0.5 mM EGTA, 5 mM 2-mercaptoethanol, 0.02% Tween 20, 10% glycerol buffer for 2 hours at room temperature in the presence of GSK3beta. Inhibitors were solubilized in DMSO (final solvent concentration in the reaction medium, 1%).
The reaction was stopped with 100 microliters of a solution made of 25 g polyphosphoric acid (85% P2O5), 126 ml 85% H3PO4, H2O to 500 ml and then diluted to 1:100 before use. An aliquot of the reaction mixture was then transferred to Whatman P81 cation exchange filters and rinsed with the solution described above. Incorporated ^33P radioactivity was determined by liquid scintillation spectrometry.
The phosphorylated GS-1 peptide had the following sequence: NH2-[…](P)EDEE-COOH. SEQ ID NO: 1 (Woodgett, J. R. (1989) Analytical Biochemistry 180, 237-241. […]

GSK3β, sequence (P49841 whole entry): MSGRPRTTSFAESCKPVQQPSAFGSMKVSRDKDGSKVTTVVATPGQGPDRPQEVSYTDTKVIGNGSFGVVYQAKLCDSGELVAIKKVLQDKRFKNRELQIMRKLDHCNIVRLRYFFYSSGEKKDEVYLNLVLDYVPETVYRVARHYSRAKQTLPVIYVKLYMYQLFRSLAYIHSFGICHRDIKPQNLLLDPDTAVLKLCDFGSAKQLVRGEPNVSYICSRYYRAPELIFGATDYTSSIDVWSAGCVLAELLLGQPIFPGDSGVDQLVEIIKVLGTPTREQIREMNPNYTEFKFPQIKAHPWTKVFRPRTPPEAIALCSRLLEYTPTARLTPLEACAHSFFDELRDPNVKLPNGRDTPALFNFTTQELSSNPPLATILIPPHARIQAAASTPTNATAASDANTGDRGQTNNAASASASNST

## COc1cc(Cl)ccc1C(=O)NCCc1nc(-c2ccncn2)cc(=O)n1C [No. 1]
  IC50: 85 nM
